# Where no end group is shown, it is not given here. [ ]: non-standard residue; d: D form. Aib = CC(C)(N)C(=O)O
# Assays:
# Type in all cases: in vivo
# [1] = system: C57BL/6 mice given MPTP; experiment: Rotarod motor control test in the MPTP Parkinson mouse model; details: 10 nmol/kg i.p. once daily for 2 weeks, FIG. 3, N=6 per group
# From the text: (§1) A standard model to induce Parkinson like symptoms in mice is the injection of the chemical (MPTP) (Li et al., 2009). This chemical impairs or kills neurons in the brain that produce dopamine. The mice develop motor impairments, and the dopaminergic neurons in the brain are reduced in numbers and function. The enzyme tyrosine hydroxylase (TH) is required to synthesise dopamine. A loss of TH signifies a loss of dopamine production (Harkavyi et al., 2008).
# Adult male C57BL/6 mice were given the dopaminergic toxin MPTP (20 mg/kg in 0.1 mL of PBS i.p. at 2-h intervals of 4 doses MPTP; Sigma) or vehicle (PBS) for one day. This treatment selectively affects dopaminergic neurons and induces Parkinson-like symptoms in mice.
# The dose of peptide tested was 10 nmol/kg body weight. The peptides were administered by a once-daily intraperitoneal injection for 2 weeks. Saline injections were administered as a control. Six animals per group were injected with a peptide or a saline control.
# The rotarod consists of a rotating pole that accelerates over time. Mice are placed on the rod, and motor skills are tested by accelerating the rotation. As the rotation increases, animals lose grip and fall on a cushion located below the rod. […] Each animal's endurance time was recorded, and the average was calculated. Data were analysed using a one-way ANOVA with post-hoc Bonferroni tests.
# [2] = system: APP/PS1 mice; experiment: Reversal Morris water maze test
# From the text: Materials and methods in Example 2 are the same as Example 1 except when stated. Reagents used in Example 2 only include antibodies to p-PI3Kp85, PI3Kp85, p-Akt (ser473), Akt, p-GSK3β (Y216), and GSK3β from Abcam, Inc. Cambridge, UK. The antibody to p-tau (AT8) from Thermo Scientific USA. Mouse Anti-β-actin, Anti-Rabbit IgG, Anti-mouse IgG, CY3-Anti-mouse IgG, RIPA Lysate, BCA Protein Assay Kit, DAPI staining solution and Anti-fluorescence decay agent from Boster (Wuhan, China).
# Classical Morris water maze (MWM) test was used to investigate spatial reference memory of mouse. The water maze mainly included a stainless steel pool and a platform in the pool for escape. There were several landmarks fixed to the walls of the water maze. The pool was filled with tap water at 22±2° C. The first phase was acquisition trial phase which was consisted of five training days (days 1-5) and four trials each day. The pool (diameter, 120 cm; high, 50 cm) was divided into four quadrants and the escape platform (diameter, 12 cm) hidden 1 cm beneath the water surface was placed in the center of the first quadrant. […] The escape latencies were recorded by Ethovision 3.0 software system (Noldus Information Technology, the Netherlands). […] The percentage of swimming time in target quadrant (the first quadrant) and frequency of platform crossing were recorded. […] Swimming time to target was recorded.
# [3] = system: C57BL/6 mice given MPTP; experiment: Immunohistochemistry for TH in the substantia nigra pars compacta, MPTP Parkinson mouse model; details: 10 nmol/kg i.p. once daily for 2 weeks, FIG. 4, N=6 per group
# From the text: as §1
# Adult male C57BL/6 mice were given the dopaminergic toxin MPTP (20 mg/kg in 0.1 mL of PBS i.p. at 2-h intervals of 4 doses MPTP; Sigma) or vehicle (PBS) for one day. […]
# Immunohistochemistry for TH in the Substantia Nigra Pars Compacta and the Striatum Six animals per group were analysed for expression of tyrosine hydroxylase (TH), a marker for dopamine production. Coronal brain sections (20 μm) from striatum (bregma […]) and SNpc (bregma […]) were analysed by immunohistochemistry using antibodies recognising TH.
# Sections were cut on a cryostat and postfixed in 4% paraformaldehyde, washed in PBS, treated with 0.3% H2O2 in methanol for 20 min, and washed again. […] For each animal, three tissue sections from one level of striatum were stained and analysed for TH-positive fibre innervation. […] Two tissue sections from each level were quantified by immunohistochemistry. […]
# [4] = system: APP/PS1 mice; experiment: Y-maze test for working memory in AD mice; details: FIG. 6, N=8-14 per group
# From the text: Materials and methods in Example 2 are the same as Example 1 except when stated. Reagents used in Example 2 only include antibodies to p-PI3Kp85, PI3Kp85, p-Akt (ser473), Akt, p-GSK3β ([…]), and GSK3β from Abcam, Inc. Cambridge, UK. The antibody to p-tau (AT8) from Thermo Scientific USA. Mouse Anti-β-actin, Anti-Rabbit IgG, Anti-mouse IgG, CY3-Anti-mouse IgG, RIPA Lysate, BCA Protein Assay Kit, DAPI staining solution and Anti-fluorescence decay agent from Boster (Wuhan, China). Spatial working memory was assessed by recording spontaneous alternation behaviour in a Y-maze. The maze was made of three 30 cm long, 7 cm high, 15 cm wide arms and the arms converged in an equilateral triangular central area. Each mouse was placed at the central triangular area and allowed to move freely through the maze during an 8-min session. The total arm entries and arm order was recorded by Smart 3.0 software system. Alternation was defined as successive entries into the three arms, on overlapping triplet sets. The percent alternation was calculated as the ratio of actual to possible alternations (defined as the total number of arm entries minus 2) multiplied by 100.
substance,measurement,setting,value
"YXEGTFTSDYSIYLDKQAAXEFVNWLLAGGPSSGAPPPSKRRQRRKKRGY-NH2 (Y[Aib]EGTFTSDYSIYLDKQAA[Aib]EFVNWLLAGGPSSGAPPPSKRRQRRKKRGY-NH2) [DA5, No. 12; X=aminoisobutyric acid]",impairment of motor skills (rotarod endurance time),[1],protect mice from an impairment of motor skills induced by MPTP
same,"probe test, recall of a change in escape route (reverse Morris water maze)","[2]; APP/PS1 mice vs APP/PS1-saline, FIG. 8c, 8d",recalled a change in escape route to a greater extent than APP/PS1-saline mice
same,cognitive flexibility and ability to relearn (reverse Morris water maze),"[2]; APP/PS1 mice, FIG. 8, N=8-14 per group",protects APP/PS1 mice from decreased cognitive flexibility and restores their ability to relearn
same,"MPTP-induced reduction of TH in the substantia nigra, pars compacta (protection of dopaminergic neurons)",[3],protected dopaminergic neurons at a greater rate than the single GIP and GLP-1 analogues
same,"spatial working memory (percent alternation, Y-maze)",[4],improved spatial working memory

# — patent publication US11220534B2, “Treatment of neurological diseases” (Lancaster University Business Enterprises Limited, priority 2016, dated 2022)
